Values after ≈ are worked out from the molar mass of the structure shown.

The nature of series [1]: Carrying potential of h(PG-co-PCL)60S0.95 by elemental analysis. The class given is physicochemical. To be noted: calculated by elemental analysis. An excerpt: (§1) The carrying potential (CP) of the polymer (solubilizing agent) is obtained as the ratio of the loaded and solubilized drug to the amount of solubilizing agent (Eq. 1).
For drugs presenting an absorption band at wavelength lower than 400 nm, the UV-VIS approach is not suitable, due to drug signals overlapping with signals of the solubilizing agent. Therefore, elemental analysis is chosen as alternative approach. The drugs chosen for the solubilization and entrapment contain nitrogen atoms, which are not present in the polymer structure. Via the quantification of the nitrogen content in the sample, it is possible to determine the amount of drug in it. For the loading quantification, the same equation is used as in the previous case.
(§2) The following tables (Table 5, Table 6 and Table 7) show the results of the performed analyses. In this context, h(PG-co-PCL)60S0.95 was used as hyperbranched polyester polyol derivative. Its non-sulfated backbone has a molecular weight of 60 kDa. The polyester polyol derivative has a sulfation degree of 95%.

Series [2] can be described thus: Carrying potential of h(PG-co-PCL)60S0.95 by UV-VIS. The class given is physicochemical. The conditions noted are these: calculated by UV. As to the method:
For drugs presenting an absorption band at wavelength higher than 400 nm, UV-VIS analysis is chosen as quantification method. First, a calibration curve of the free drug in the suitable solvent mixture is recorded. Suitable combinations of solvent include mixtures of water and methanol, as well as of water and ethanol, in both cases in a ratio falling in a range of from 40 to 60% to 20 to 80%.
The calibration curve is prepared with at least 5 points, in a concentration range depending on the drug to be quantified. Linear regression is applied to generate the equation of the straight-line necessary to calculate the drug content.
The formulation is afterwards dissolved in the same medium and an UV-VIS spectrum is recorded. It is possible to use a straight-line equation to get the concentration of drug in solution. Knowing the total volume of the formulation, the content of drug, in mg, can be calculated.
as §1, §2

For another series, the system named is HeLa cells. The experiment in a line: Cell viability experiment (toxicity) in HeLa cells. The format is cell-based. To be noted: Homo sapiens, free drug solubilized in DMSO vs drug solubilized in sulfated polyester polyol.
A further series has as its system KB-V1 cells. The experiment in a line: Cell viability experiment (toxicity) in KB-V1 cells. The class given is cell-based. The conditions noted are these: Homo sapiens, free drug solubilized in DMSO vs drug solubilized in sulfated polyester polyol.
Series [3] in a line: physchem. The conditions noted are these: aqueous with cosolvent or surfactant or cyclodextrin, thermodynamic from solid.
A short description of another series: Solubility in water. The conditions noted are these: for solubility: Solubility in water.
A short description of series [4]: Size and Z-potential investigation by DLS in PB. The class given is physicochemical. The conditions noted are these: h(PG-co-PCL)60S0.95 with solubilized drug; for Size (volume): DLS in PB, in nm (unit assumed); for Z-potential: in PB, in mV (unit assumed). An excerpt: The following tables (Table 5, Table 6 and Table 7) show the results of the performed analyses. In this context, h(PG-co-PCL)60S0.95 was used as hyperbranched polyester polyol derivative. Its non-sulfated backbone has a molecular weight of 60 kDa.

Series [5] can be described thus: physchem. To be noted: water.
Series [6] in a line: Solubility in aqueous solution of the hyperbranched polyester polyol derivative.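 Further: drug added to a previously prepared clear aqueous solution of the solubilizing polymer, stirred 18 h at room temperature in the dark, then centrifuged.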

In the case of `CCN(CC)CCNC(=O)c1c(C)[nH]c(/C=C2\C(=O)Nc3ccc(F)cc32)c1C` [Sunitinib], the Carrying potential in series [1] is 8.7%^ wt %; in series [2], 11% wt %. The figures for the half-inhibitory concentration (IC50) in the series with HeLa cells and in the series on KB-V1 cells were 3.52 µg/mL (≈ 8.84 µM) and 1.95 µg/mL (≈ 4.9 µM), respectively. The compound also returned a solubility at 18 h in the series “physchem [3]” of more than 300 µg/mL. In the series “Solubility in water”, this compound displayed a solubility of 30 µg/mL (≈ 75.3 µM).
Regarding `CC(C)(C)c1nc(-c2cccc(NS(=O)(=O)c3c(F)cccc3F)c2F)c(-c2ccnc(N)n2)s1` [Dabrafenib], the Carrying potential in [1] is given as 1% wt %. In addition, in series [4], the “Size (volume)” value is on record as 12 ± 1 and the Z-potential is reported as −29.6. The solubility at 18 h in the series “physchem [3]” is more than 300 µg/mL. In addition, in the series “Solubility in water”, the concentration in solution (solubility) came to 30 µg/mL (≈ 57.7 µM).
Regarding `CC(=O)Nc1cccc(-n2c(=O)n(C3CC3)c(=O)c3c(Nc4ccc(I)cc4F)n(C)c(=O)c(C)c32)c1` [Trametinib], the Carrying potential in [1] is 2% wt %. In [4], the “Size (volume)” value was 14 ± 2 and the Z-potential was −18.9. The solubility in “physchem [5]” amounted to 30 µg/mL (≈ 48.7 µM). In addition, the solubility at 18 h in the series “physchem [3]” is more than 300 µg/mL.
Consider `Cc1c(-c2c(-c3ccc(F)o3)sc3ncnc(O[C@H](Cc4ccccc4OCc4ccnn4CC(F)(F)F)C(=O)O)c23)ccc(OCCN2CCN(C)CC2)c1Cl` [S63845], for which the solubility was 1 µg/mL (≈ 1.21 µM) in “physchem [5]” and more than 300 µg/mL in “physchem [3]”.
On to `[2H]c1nc(C)nc([2H])c1-c1cc(NC[C@@H](C)c2cccc3c(C(=O)NC)ccnc23)ncn1` [M9831/VX-984], for which the Carrying potential in series [2] was 10% wt %.
As to `C=CC(=O)Nc1ccc2[nH]c(=O)n(C3CCN(Cc4ccc(-c5nc6cc[nH]c(=O)c6cc5-c5ccccc5)cc4)CC3)c2c1` [Borussertib], in series [1], the Carrying potential is recorded as 12% wt %.
On to `CNCc1ccc(-c2cc(-c3nc(-c4ccc(S(=O)(=O)C(C)C)cc4)cnc3N)on2)cc1` [Berzosertib], for which the Carrying potential in series [2] is listed as 10% wt %.
Regarding `CN[C@@H]1C[C@H]2O[C@@](C)([C@@H]1OC)n1c3ccccc3c3c4c(c5c6ccccc6n2c5c31)C(=O)NC4` [Staurosporin], the Solubility in water in “Solubility in water” amounted to 40 µg/mL (≈ 85.7 µM). The “Solubility in aqueous polymer solution” value in series [6] is more than 300 µg/mL.
The matching figures for `CC(C)(C)C[C@@H]1N[C@@H](C(=O)N[C@H]2CC[C@H](O)CC2)[C@H](c2cccc(Cl)c2F)[C@]12C(=O)Nc1cc(Cl)ccc12` [MI-773]: 1 µg/mL (≈ 1.78 µM) and more than 300 µg/mL.
